From ChEMBL document CHEMBL5244247, “Natural and synthetic coumarins as antileishmanial agents: A review” (Eur J Med Chem, 2020)
Converted amounts (≈) assume the structure as drawn.

Assays:
[1] = biological target: Acetylcholinesterase (Homo sapiens) (UniProt P22303); experiment: Inhibition of AChE (unknown origin) assessed as inhibition zone by Ellman's colorimetric method
[2] = test system: Leishmania amazonensis; experiment: Antileishmanial activity against Leishmania amazonensis infected in BALB/c mouse assessed as reduction in parasite load at 10 mg/kg, sc administered for 14 days relative to control; type: functional; set-up: scale not given: the % may be the effect or the level left; conditions: time 14.0 day
[3] = test system: Leishmania amazonensis; experiment: Antileishmanial activity against amastigote form of Leishmania amazonensis assessed as parasite growth inhibition; type: functional, organism-based
[4] = test system: Leishmania major; experiment: Antileishmanial activity against promastigote form of Leishmania major assessed as inhibition at 0.1 uM incubated for 72 hrs by MTT assay relative to control; type: functional
[5] = test system: Leishmania major; experiment: Antileishmanial activity against promastigote form of Leishmania major assessed as inhibition at 100 uM incubated for 72 hrs by MTT assay relative to control; type: functional
[6] = test system: Leishmania major; experiment: Antileishmanial activity against promastigote form of Leishmania major assessed as inhibition incubated for 48 hrs by MTT assay; type: functional, organism-based
[7] = test system: Leishmania amazonensis; experiment: Antileishmanial activity against intracellular Leishmania amazonensis MHOM/BR/75/Josefa amastigotes infected in BALB/c mouse peritoneal macrophages assessed as parasite growth inhibition incubated for 24 hrs by regression analysis; type: functional, organism-based; conditions: Peritoneal macrophage
[8] = test system: Leishmania amazonensis; experiment: Antileishmanial activity against promastigote form of Leishmania amazonensis assessed as parasite growth inhibition incubated for 72 hrs by regression analysis; type: functional, organism-based
[9] = test system: Leishmania mexicana; experiment: Antileishmanial activity against promastigote form of Leishmania mexicana; type: functional, organism-based
[10] = test system: Leishmania donovani; experiment: Antileishmanial activity against promastigote form of Leishmania donovani; type: functional, organism-based
[11] = test system: Leishmania major; experiment: Antileishmanial activity against promastigote form of Leishmania major; type: functional, organism-based
[12] = test system: Leishmania chagasi; experiment: Antileishmanial activity against promastigote form of Leishmania chagasi; type: functional, organism-based
[13] = test system: Leishmania major; experiment: Antileishmanial activity against promastigote form of Leishmania major assessed as inhibition of parasite growth by Litchfield-Wilcoxon method; type: functional, organism-based
[14] = test system: Leishmania donovani; experiment: Antileishmanial activity against amastigote form of Leishmania donovani at 50 uM assessed as inhibition of parasite growth relative to control; type: functional
[15] = test system: Leishmania donovani; experiment: Antileishmanial activity against amastigote form of Leishmania donovani; type: functional, organism-based
[16] = test system: Leishmania major; experiment: Antileishmanial activity against promastigote form of Leishmania major assessed as inhibition of parasite growth by MTT colorimetric cell viability assay; type: functional, organism-based
[17] = test system: Leishmania panamensis; experiment: Antileishmanial activity against intracellular Leishmania panamensis amastigotes infected in human U-937 cells assessed as inhibition incubated for 72 hrs by flow cytometry; type: functional, organism-based; conditions: U-937, 72 h
[18] = test system: Leishmania panamensis; experiment: Antileishmanial activity against intracellular Leishmania panamensis amastigotes infected in human U-937 cells assessed as inhibition at 20 ug/mL incubated for 72 hrs by flow cytometry relative to control; type: functional
[19] = test system: Leishmania infantum; experiment: Antileishmanial activity against axenic amastigote stage of Leishmania infantum infected in human THP-1 cells assessed as inhibition of parasite growth incubated for 24 hrs by flow cytometry assay; type: functional, organism-based; conditions: THP-1, 24 h
[20] = Selectivity index, ratio of IC50 for cytotoxicity against human THP-1 cells to IC50 for antileishmanial activity against axenic amastigote stage of Leishmania infantum infected in human THP-1 cells; type: toxicity, cell-based; conditions: read-out: Selectivity Index
[21] = test system: THP-1; experiment: Cytotoxicity against human THP-1 cells assessed as inhibition incubated for 24 hrs by flow cytometry assay; type: functional, cell-based; conditions: THP-1, 24 h
[22] = Selectivity index, ratio of CC50 for cytotoxicity against mouse J774G8 cells to IC50 for antileishmanial activity against intracellular Leishmania amazonensis MHOM/BR/75/Josefa amastigotes infected in BALB/c mouse peritoneal macrophages; type: toxicity, cell-based; conditions: read-out: Ratio CC50/IC50
[23] = test system: Leishmania amazonensis; experiment: Antileishmanial activity against promastigote form of Leishmania amazonensis assessed as parasite growth inhibition incubated for 72 hrs by neubauer counting chamber analysis; type: functional, organism-based
[24] = test system: Leishmania amazonensis; experiment: Antileishmanial activity against promastigote form of Leishmania amazonensis; type: functional, organism-based
[25] = test system: Leishmania braziliensis; experiment: Antileishmanial activity against promastigote form of Leishmania braziliensis; type: functional, organism-based; conditions: Leishmania braziliensis
[26] = test system: Leishmania infantum; experiment: Antileishmanial activity against promastigote form of Leishmania infantum; type: functional, organism-based

Sequence of Acetylcholinesterase (Homo sapiens) (P22303 whole entry): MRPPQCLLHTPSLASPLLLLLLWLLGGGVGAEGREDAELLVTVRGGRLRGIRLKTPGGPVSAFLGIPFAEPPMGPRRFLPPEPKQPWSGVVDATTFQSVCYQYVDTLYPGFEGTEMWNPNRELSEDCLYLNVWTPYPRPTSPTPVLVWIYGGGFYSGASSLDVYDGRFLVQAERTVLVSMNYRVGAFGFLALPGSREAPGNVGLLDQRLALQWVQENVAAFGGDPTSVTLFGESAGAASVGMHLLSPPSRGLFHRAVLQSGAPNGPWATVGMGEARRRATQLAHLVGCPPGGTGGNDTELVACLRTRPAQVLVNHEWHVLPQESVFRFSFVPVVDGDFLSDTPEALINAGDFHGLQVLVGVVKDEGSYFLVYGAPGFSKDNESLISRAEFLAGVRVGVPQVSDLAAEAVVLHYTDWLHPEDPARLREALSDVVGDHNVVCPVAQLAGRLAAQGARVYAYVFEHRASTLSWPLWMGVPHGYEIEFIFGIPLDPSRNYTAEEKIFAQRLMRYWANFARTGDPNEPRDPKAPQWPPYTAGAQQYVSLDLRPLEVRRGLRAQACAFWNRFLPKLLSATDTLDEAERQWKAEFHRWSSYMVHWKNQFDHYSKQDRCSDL

CNC(=O)Oc1ccc2c(c1)[C@]1(C)CCN(C)[C@@H]1N2C
inhibition zone (IZ) [1]: 9 mm

MEGLUMINE ANTIMONATE
Activity [2]: 95.2%

COC(=O)C1=C(N)Oc2cc(O)c3c(C)cc(=O)oc3c2C1c1ccc([N+](=O)[O-])cc1 (configuration not stated)
IC50 [3]: 33.1 µM

Cc1cccc(-n2c(-c3cc4ccccc4oc3=O)cs/c2=N/NC(=O)c2cc3ccccc3oc2=O)c1C
inhibition at 0.1 µM [4]: 53.9% | inhibition at 100 µM [5]: 70.4%

O=c1oc2ccc(/N=C/c3ccco3)cc2cc1-c1ccc2c(c1)OCO2
IC50 [6]: 223 µM

CCC(C)C(=O)c1c(O)c(CC=C(C)C)c(OC)c2c(-c3ccccc3)cc(=O)oc12 (configuration not stated)
IC50 [7]: 34 µM | IC50 [8]: 2.4 µM

N=C(N)c1ccc(OCCCCCOc2ccc(C(=N)N)cc2)cc1 [PENTAMIDINE]
EC50 [9]: 1.75 µg/mL (≈ 5.14 µM) | EC50 [10]: 1.41 µg/mL (≈ 4.14 µM) | EC50 [11]: 1.46 µg/mL (≈ 4.29 µM) | EC50 [12]: 5.2 µg/mL (≈ 15.3 µM)

CCC(C)C(=O)c1c(OC)c(CC=C(C)C)c(OC)c2c(-c3ccccc3)cc(=O)oc12 (configuration not stated)
IC50 [8]: 15.1 µM

CC1=CC[C@H]2[C@@H](CC[C@@H](O)C2(C)C)[C@]1(C)COc1ccc2ccc(=O)oc2c1
IC50 [11]: 46.8 µg/mL (≈ 122 µM)

CC(C)=C1CC[C@H](C)[C@](C)(COc2ccc3ccc(=O)oc3c2)[C@H]1CCC(=O)O [GALBANIC ACID]
IC50 [13]: 165 µM

N#C/C(=N\Nc1ccccc1)C1=COC(c2cc3ccccc3oc2=O)=CC1C#N (configuration not stated)
inhibition at 50 µM [14]: 92% | IC50 [15]: 14.2 µM

C=C1C=C[C@H]2C(C)(C)C(=O)CC[C@]2(C)[C@@H]1COc1ccc2ccc(=O)oc2c1
IC50 [11]: 43.8 µg/mL (≈ 116 µM)

COc1cc(O[C@@H]2O[C@H](CO)[C@@H](O)[C@H](O)[C@H]2O)c2c(-c3ccc(OC)c(OC)c3)cc(=O)oc2c1
IC50 [15]: > 90 µM | IC50 [10]: 10.2 µM

CC1CC(CC(C)(O)C(O)COc2ccc3ccc(=O)oc3c2O)OC1=O (configuration not stated)
IC50 [16]: > 100 µM

Cc1cc(=O)oc2cc(OCCCCOc3cc(Cl)ccc3Oc3ccc(Cl)cc3Cl)ccc12
IC50 [17]: 53.1 µM | inhibition at 20 µg/mL [18]: 57.1%

COC(=O)C1=C(N)Oc2cc(O)c3c(C)cc(=O)oc3c2C1c1ccc(Cl)cc1 (configuration not stated)
IC50 [3]: 38.4 µM

COc1cc(O[C@@H]2O[C@H](CO)[C@@H](O)[C@H](O)[C@H]2O)c2c(-c3ccc(O)c(O)c3)cc(=O)oc2c1
IC50 [15]: > 90 µM | IC50 [10]: 28.9 µM

N#CCC1=NN=C(c2cc3ccccc3oc2=O)C(CC(=O)c2ccc(Cl)cc2)O1 (configuration not stated)
inhibition at 50 µM [14]: 95% | IC50 [15]: 14.2 µM

C=C(C)C(CC/C(C)=C/COc1cc(O)cc2oc(=O)ccc12)OO (configuration not stated)
IC50 [16]: 20.2 µM

COc1cc2oc(=O)cc(C[Se]C#N)c2cc1OC
IC50 [19]: 0.82 µM | selectivity ratio [20]: 19.4 | IC50 [21]: 16 µM

CCC(C)C(=O)c1c(O)c(CCC(C)C)c(O)c2c1OC(=O)CC2c1ccccc1 (configuration not stated)
IC50 [7]: 0.6 µM | selectivity ratio [22]: 142 | IC50 [8]: 0.9 µM

CC(=O)OC[C@H]1O[C@@H](Oc2ccc3c(-c4ccccc4)cc(=O)oc3c2)[C@H](OC(C)=O)[C@@H](OC(C)=O)[C@@H]1OC(C)=O
IC50 [3]: 34.9 µM | IC50 [23]: 10 µM

CCC(C)C(OC)c1c(OC)c(CC=C(C)C)c(OC)c2c(-c3ccccc3)cc(=O)oc12 (configuration not stated)
IC50 [7]: 22.2 µM | IC50 [8]: 1.9 µM

CCCCCCCCCCCCCCCCOP(=O)([O-])OCC[N+](C)(C)C [MILTEFOSINE]
IC50 [24]: 9.4 µM | IC50 [19]: 2.84 µM | selectivity ratio [20]: 7 | IC50 [25]: 10.4 µM | IC50 [26]: 7.5 µM | IC50 [21]: 18.5 µM

COC(=O)C1=C(N)Oc2cc(O)c3c(C)cc(=O)oc3c2C1c1ccc(Br)cc1 (configuration not stated)
IC50 [3]: 33.2 µM

C[C@@H]1[C@H](O)[C@@H](C)/C=C/C=C/C=C/C=C/C=C/C=C/C=C/[C@H](O[C@@H]2O[C@H](C)[C@@H](O)[C@H](N)[C@@H]2O)C[C@@H]2O[C@](O)(C[C@@H](O)C[C@@H](O)[C@H](O)CC[C@@H](O)C[C@@H](O)CC(=O)O[C@H]1C)C[C@H](O)[C@H]2C(=O)O [AMPHOTERICIN B]
inhibition at 100 µM [5]: 79.8%
